From paper PMC4911353, “Pharmacologic Inhibition of Host Phosphodiesterase-4 Improves Isoniazid-Mediated Clearance of Mycobacterium tuberculosis” (Frontiers in Immunology, 2016)

System: Mtb-infected mouse lungs
Experiment: Genome-wide lung transcriptome (microarray, IPA network/GO analysis) of Mtb-infected mice
Type: in vivo
Design: SDEGs upregulated in TNF-α interaction network / SDEGs downregulated in TNF-α interaction network: unit not given here
[1] = TNF-a regulon network, Mtb-infected mouse lungs, CC-11050 treated
[2] = lungs of treated infected animals

## CCOc1cc([C@@H](CS(C)(=O)=O)N2Cc3cccc(NC(=O)C4CC4)c3C2=O)ccc1OC [CC-11050, N-[2-[(1S)-1-(3-ethoxy-4-methoxyphenyl)-2-(methylsulfonyl)ethyl]-2,3-dihydro-3-oxo-1H-isoindol-4-yl]-(9Cl) cyclopropanecarboxamide]
TNF-a regulon network
  PCK2 expression: 0
  PCP4 expression: 0
  PCSK6 expression: 0
  PDCD1 expression: 0
  PDE2A expression: 0
  PDE8B expression: 0
  PDGFA expression: 0
  PDPN expression: -1.216
  PDZD2 expression: 0
  PECAM1 expression: 0
  PENK expression: 0
  PIGR expression: 0
  PKMYT1 expression: 0
  PLA2G5 expression: 0
  PLA2G16 expression: 0
  PLAUR expression: 0
  PLIN1 expression: 0
  PLIN4 expression: 0
  PLK3 expression: 0
  PLSCR1 expression: 0
  PML expression: 0
  PPAP2A expression: 1.247
  PPARA expression: 0
  PPARD expression: 0
  PPARG expression: 0
  PPARGC1A expression: 0
  PPP1R3C expression: 0
  PRKCD expression: 0
  PRSS23 expression: 0
  PSMA2 expression: 0
  PSMB8 expression: 0
  PSMB9 expression: 0
  PSMB10 expression: 0
  PSME1 expression: 0
  PSME2 expression: 0
  PXMP2 expression: 0
  PYCARD expression: 0
  RAB32 expression: 0
  RARRES2 expression: 0
  RASD1 expression: 0
  RCAN1 expression: 0
  RCN3 expression: 1.2203
  REL expression: 0
  RETN expression: 0
  RFTN1 expression: 0
  RFX5 expression: 0
  RGS1 expression: 0
  RGS2 expression: 0
  RGS4 expression: 0
  RGS5 expression: 0
  RGS7 expression: 0
  RGS14 expression: 0
  RGS16 expression: 0
  RIPK1 expression: 0
  RIPK2 expression: 0
  RNASE2 expression: 0
  RNASE4 expression: 0
  RND3 expression: -1.216
  RNF149 expression: 0
  ROBO1 expression: 1.1568
  RRM2 expression: 0
  RUNX2 expression: 0
  S100A8 expression: 0
  SAA2 expression: 0
  SAMD4A expression: 0
  SCNN1A expression: 0
  SCNN1B expression: 0
  SCNN1G expression: 1.211
  SCUBE1 expression: 0
  SCUBE2 expression: 1.331
  SDC2 expression: 0
  SELPLG expression: 0
  SEMA3C expression: 1.231
  SEPP1 expression: 0
  SERPINB9 expression: 0
  SERPINE2 expression: 0
  SERPINF1 expression: 0
  SHH expression: 0
  SLC14A1 expression: 0
[1]
  SLC1A2 expression: 0
  SLC1A3 expression: 0
  SLC1A4 expression: 0
  SLC2A6 expression: 0
  SLC5A8 expression: 0
  SLC7A8 expression: 0
  SLC20A1 expression: 0
  SLFN12L expression: 0
  SMAD3 expression: 0
  SMPD1 expression: 0
  SMPD2 expression: 0
  SMPDL3A expression: 1.176
  SMURF1 expression: 0
  SMURF2 expression: 1.4579
  SNCG expression: 0
  SND1 expression: 0
  SOCS3 expression: 0
  SOD1 expression: 1.19
  SP1 expression: 0
  SP3 expression: 0
  SPHK1 expression: 0
  SQSTM1 expression: 0
  ST3GAL5 expression: 0
  ST3GAL6 expression: 0
  ST6GAL1 expression: 0
  STARD3 expression: 0
  STAT4 expression: 0
  STEAP4 expression: 0
  STMN1 expression: -1.16
  SULT2A1 expression: 0
  SYTL1 expression: 0
  Slco1a4 expression: 0
  TAP1 expression: 0
  TAPBP expression: 0
  TBX21 expression: 0
  TBXAS1 expression: 0
  TDRD7 expression: 0
  TEK expression: 0
  TF expression: 0
  THY1 expression: 0
  TIMP2 expression: 0
  TIMP4 expression: 0
  TJP1 expression: 0
  TLR7 expression: 0
  TLR8 expression: 0
  TM4SF1 expression: 0
  TNF expression: 0
  TNFAIP2 expression: 0
  TNFAIP3 expression: 0
  TNFAIP6 expression: 0
  TNFAIP8 expression: 0
  TNFRSF11A expression: -1.191
  TNFRSF18 expression: 0
  TNFSF10 expression: 0
  TNFSF13B expression: 0
  TNIP1 expression: 0
  TNN expression: 0
  TPD52L2 expression: 1.132
  TPT1 expression: 0
  TRADD expression: 0
  TRAF1 expression: 0
  TRAF2 expression: 0
  TRAF3 expression: 0
  TRAFD1 expression: 0
  TREM2 expression: 0
  TWIST2 expression: 0
  TXNIP expression: 1.1361
  TYK2 expression: 0
  Tgtp1/Tgtp2 expression: 0
  UBD expression: 0
  UBE2H expression: 0
  UCP1 expression: 0
  VASP expression: 0
  VCAM1 expression: 0
  VIPR2 expression: 0
  WHSC1 expression: 0
  WISP1 expression: 0
  WLS expression: 0
  WNT5A expression: 0
  WNT7A expression: 0
  WTAP expression: 0
  ZC3H12A expression: 0
  ZNF365 expression: 0
[2]
  Genes downregulated in lung inflammation network: four
  Genes upregulated in lung inflammation network: nine
  SDEGs downregulated in TNF-α interaction network: 8
  SDEGs upregulated in TNF-α interaction network: 33
Lungs of treated infected mice
  Il-17 interaction network genes whose expression was dampened: 87%
Lungs of treated infected mice, HmgB1, Il17F, Entpd1, HspB8
  Genes significantly differentially expressed in Il-17 interaction network: four
